The results in this text go back to patent US20230398116A1, “Agent for reversing resistance to anticancer drugs” (Y'S AC CO., LTD., priority 2020, published 2023).

The subject of one assay is E0771 cells. In words: In vivo TNBC transplantation model (E0771 in hIL-26Tg or control mice). Also noted: species or system mouse. As for the experimental part: E0771 cells (5×10^5) with 50% Matrigel were injected subcutaneously into the flank of hIL-26Tg mice or control mice. Tumor measurements were performed using caliper and volume was calculated using an equation (v=width×width×(length/2)). gefitinib was suspended in H2O with 1% tween (registered trademark) 80 for oral administration (50 mg/kg). Ten days after injection of E0771 cells, the oral administration once a day was performed 5 times a week. As a control, 1% tween (registered trademark) 80 containing H2O without Gefiinib was administered. The monoclonal antibody (mAb) treatment was performed by diluting anti-IL-26 mAb (clone 69-10) (Hatano R et al., MAbs (2019) 1-15, and JP 2009-99492 A) or mouse IgG1 isotype control to 1 mg/ml with sterile PBS, and by intraperitoneal injection of 200 μl (200 μg) once a day twice a week starting on day 10 after E0771 cell injection. Mice were sacrificed until subcutaneous tumor size reached 1600 mm^3. E0771 and HCC70 cells (1×10^5) were cultured for 24 hours in RPMI1640 medium with 10% FCS on Lab-Tek chamber slides (Thermo Fisher Scientific). […] Subcutaneous tumor samples obtained from mice were fixed in 4% paraformaldehyde (Thermo Fisher Scientific) and embedded in OCT compound (Tissue-Tek (registered trademark), Sakura Finetek, Japan). Cells and slides were immunostained with each antibody and observed using a Zeiss inverted microscope and Axiovision 2.0 program (Carl Zeiss, Germany). The fluorescence intensity was quantified with Image-J software (NIH). The images were captured using a 100×400× objective.

The next assay concerns MDA-MB468 cells. In words: MTT assay / cell proliferation (confluence) assay, MDA-MB468. The class given is cell-based, human. As to the method:
(§1) Human and mouse breast cancer cells (1×10^4) were cultured in 10% FCS containing RPMI1640 medium on a 96-well flat bottom plate (Corning, Tewksbury, MA) at 37° C. for 24 hours, and then stimulated with IL-26 for 48 hours in the presence or absence of EGFR-TKI (gefitinib or erlotinib) at various concentrations, a signal inhibitor, and a neutralizing antibody. HUVECs were seeded in a 96-well flat bottom plate at 5×10^3 cells/well in a 2% FBS-containing EGM medium in which growth factors were reduced by half, and cultured at 37° C. for 12 hours. Thereafter, the medium was aspirated, and a recombinant human IL-26 dimer was adjusted to a final concentration of 10 ng/mL in a 2% FBS-containing EGM medium containing no growth factors, and added to the cells. The stimulation was started in the presence or absence of control human IgG and anti-human IL-26 antibodies, and the cells were cultured for 48 hours. Thereafter, a concentration of 20 μl or 1/10 of a 5 mg/ml MTT solution (Tetrazolium monosodium salt, WST-8) was added to each well, and the plate was allowed to stand for 1 hour. The absorbance at 450 nm/595 nm was measured using Microplate Reader (Bio-Rad, Hercules, CA) and data was analyzed with Microplate Manager 6 software (Bio-Rad).
(§2) Human and mouse breast cancer cells (1×10^4) were cultured in RPMI1640 medium containing 10% FCS for 24 hours at 37° C. on a 96-well flat bottom plate (Corning), and then stimulated with IL-26 (30 ng/ml) in the presence or absence of various concentrations of gefitinib and a neutralizing antibody. Cell proliferation was measured as cell confluence using IncuCyte ZOOM (Essen Bioscience, Ann Arbor, MI).

The test system of a further assay is T47D cells. As to the kind of experiment: MTT assay / cell proliferation (confluence) assay, T47D. The class given is cell-based, human. Particulars: 48 hours. As to the method: as §1, with “The stimulation was started in the presence or absence of control human IgG and anti-human IL-26 antibodies, and the cells were cultured for 48 hours. Thereafter, a concentration of 20 μl or 1/10 of a 5 mg/ml MTT solution (Tetrazolium monosodium salt, WST-8) was added to each well, and the plate was allowed to stand for 1 hour.” left out
as §2

Assay [1] deals with endoplasmic reticulum stress signaling in E0771 cells. As to the kind of experiment: qRT-PCR of endoplasmic reticulum stress markers in E0771 cells. The class given is cell-based, mouse. Particulars: 6 hours. As to the method: E0771 cells, HCC70 cells, and MDA-MB-468 cells were cultured in RPMI1640 medium containing 10% FCS on a 6-well plate (Corning), and then stimulated with IL-26 (30 ng/ml) in the presence or absence of gefitinib for 3, 6, or 12 hours. The cells were harvested and total RNA was extracted. cDNA was synthesized using PrimeScript II first-strand cDNA synthesis kit (TaKaRa Bio, Japan) and oligo (dT) primers. The mRNA levels were measured by 7500 System SDS software (Applied Biosystems, Foster City, CA) and normalized to hypoxanthine phosphoribosyltransferase expression levels.

In assay [2] the target is T1, interaction between IL-26 and EphA3 (Homo sapiens, UniProt Q9NPH9).
T1 construct: purchased R&D Systems; host or cells: IL-26 was purchased; EphA3 is endogenous on HCC70 cells
T1 sequence (Q9NPH9 22-171): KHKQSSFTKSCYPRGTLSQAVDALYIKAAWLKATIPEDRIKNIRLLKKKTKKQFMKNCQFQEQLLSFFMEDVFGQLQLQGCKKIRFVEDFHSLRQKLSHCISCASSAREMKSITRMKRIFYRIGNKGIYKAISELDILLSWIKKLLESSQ
In words: Immunofluorescence of rhIL-26-Alexa488 and cell surface EphA3 on HCC70 cells. The class given is cell-based. As to the method:
E0771 and HCC70 cells (1×10^5) were cultured for 24 hours in RPMI1640 medium with 10% FCS on Lab-Tek chamber slides (Thermo Fisher Scientific). The cultured cells were stimulated with Alexa Fluor 488 labeled IL-26 (30 ng/ml) in the presence or absence of recombinant human and mouse EphA3-Ig for 1 hour. HCC70 cells were stimulated with IL-26 (30 ng/ml) in the presence or absence of gefitinib (40 μM), a signal inhibitor, and a neutralizing antibody for 24 hours. Subcutaneous tumor samples obtained from mice were fixed in 4% paraformaldehyde (Thermo Fisher Scientific) and embedded in OCT compound (Tissue-Tek (registered trademark), Sakura Finetek, Japan). Cells and slides were immunostained with each antibody and observed using a Zeiss inverted microscope and Axiovision 2.0 program (Carl Zeiss, Germany). The fluorescence intensity was quantified with Image-J software (NIH). The images were captured using a 100×400× objective.

Where [3] appears, read: E0771, IL-26 30 ng/ml, gefitinib 20 μM.

As for `COc1cc2ncnc(Nc3ccc(F)c(Cl)c3)c2cc1OCCCN1CCOCC1` [gefitinib, Gefitinib, reference compound], the “number of Ly6G+ granulocytes infiltrating TME” value in the assay on E0771 cells (gefitinib-treated WT and hIL-26Tg mice compared to vehicle-treated, FIG. 40) was “significantly increased”. In addition, the “phosphorylation of AKT in tumor cells” value in the assay on E0771 cells (gefitinib-treated WT mice, tumor resected 14 days after inoculation, FIG. 41) is “strongly suppressed”. Further, the “phosphorylation of JNK in tumor cells” value in the assay with E0771 cells (gefitinib-treated WT mice, tumor resected 14 days after inoculation, FIG. 42) was “strongly suppressed”. Moreover, in the assay on E0771 cells (hIL-26Tg mice, gefitinib 50 mg/kg oral gavage, FIG. 35), the “tumor growth in hIL-26Tg mice” value is recorded as “tumor suppression by gefitinib was significantly inhibited”. Further, in the assay on E0771 cells (littermate control (WT) mice, gefitinib 50 mg/kg oral gavage once a day, five times a week, FIG. 35), the “tumor growth in control mice” value is “suppressed”. Moreover, the “cell proliferation under gefitinib” value was “suppression of cell proliferation” in the assay with MDA-MB468 cells (MDA-MB468, 48 hours, FIGS. 4A, 4B) and “suppression of cell proliferation” in the assay with T47D cells (FIGS. 4C, 4D). The “mRNA expression levels of DDIT3, ATF3 and ATF4, gefitinib treatment” value in assay [1] (E0771, gefitinib 20 μM, FIG. 29) was “significantly increased”. Moreover, the “mRNA expression levels of endoplasmic reticulum stress-related cytokines/chemokines, gefitinib treatment” value in assay [1] (E0771, gefitinib 20 μM, FIG. 34) was “significantly increased”.

B1: 69-10: mouse anti-human IL-26 monoclonal antibody, clone 69-10, from deposited hybridoma (antibody, V domains shown)
VH: QVTLKESGPGILKPSQTLSLTCSFSGFSLSTSGMGVGWIRQPSGKGLEWLAHIWWDDDKYYNPSLKSQLTISKDTSRNQVFLKITSVDTADTATYYCVRGGITATHYYAMDYWGQGTSVTVSS
VL: DIQMTQSPASQSASLGESVTISCLASQTIGTWLSWYQQKPGKSPQLLIYAATSLADGVPSRFSGSGSGTKFSFKISSLQAEDFVSYYCQQLYSSPWTFGGGTKLEIK
For the molecule B1, the “tumor growth, anti-IL-26 mAb and gefitinib” value with E0771 cells (hIL-26Tg mice, clone 69-10 200 μg/dose i.p. twice a week with gefitinib, compared to gefitinib alone, FIG. 36) is recorded as “significantly reduced”. Moreover, in the assay with E0771 cells (hIL-26Tg mice, not illustrated), the “tumor growth, anti-IL-26 mAb alone” value is on record as “no effect on tumor growth”. Further, in assay [2] (HCC70, rhIL-26-Alexa488 30 ng/ml, 50 μg/ml each, 1 hour, FIG. 21), the “inhibition of interaction between IL-26 and EphA3” value is “clearly inhibited the interaction between IL-26 and EphA3”.

B2: IL-26: recombinant human IL-26 dimers for cell stimulation, R&D Systems (protein)
chain: T1 sequence (Q9NPH9 22-171)
For the molecule B2, the “effect of exogenous IL-26 on suppression of cell proliferation by gefitinib” value in the assay with MDA-MB468 cells (MDA-MB468, 48 hours) is recorded as “inhibited”; in the assay on T47D cells, “inhibited”. In addition, the “effect of exogenous IL-26 on inhibitory effect of erlotinib” value with MDA-MB468 cells (MDA-MB-468, IL-26 30 ng/ml, erlotinib 30 μM or 50 μM, 48 hours, MTT) is on record as “inhibited the inhibitory effect of erlotinib on cell proliferation”. The “mRNA expression levels of DDIT3, ATF3 and ATF4, IL-26 with gefitinib” value in assay [1] (setting [3]) was “significantly decreased”. Also, the “mRNA expression levels of endoplasmic reticulum stress-related cytokines/chemokines, IL-26 with gefitinib” value in assay [1] (setting [3]) is “significantly reduced”. For the same molecule, the “colocalization of exogenous IL-26 with cell surface EphA3” value in assay [2] (HCC70, FIG. 21) is “colocalized with the cell surface EphA3 of HCC70”.
